The source of these data is US6166000A, “Methods for preparation and use of 1α,24(S)-Dihydroxy vitamin . D.sub2” (priority 1995, dated 2000).

The target of data set [1] is T1, vitamin D receptor (VDR) (Homo sapiens, UniProt P11473).
T1 sequence (P11473 1-427): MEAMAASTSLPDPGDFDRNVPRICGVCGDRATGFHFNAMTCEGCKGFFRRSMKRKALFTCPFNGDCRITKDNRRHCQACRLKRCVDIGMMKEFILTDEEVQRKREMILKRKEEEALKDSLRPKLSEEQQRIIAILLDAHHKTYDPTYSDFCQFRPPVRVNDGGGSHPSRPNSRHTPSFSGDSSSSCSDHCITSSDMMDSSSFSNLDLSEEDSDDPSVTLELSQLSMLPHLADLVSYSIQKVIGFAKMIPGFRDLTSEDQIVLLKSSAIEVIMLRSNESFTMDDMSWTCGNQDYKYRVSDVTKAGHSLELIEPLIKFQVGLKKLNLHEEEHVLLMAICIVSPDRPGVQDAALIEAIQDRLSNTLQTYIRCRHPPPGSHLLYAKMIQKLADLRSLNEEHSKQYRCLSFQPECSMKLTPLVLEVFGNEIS
Nature of the data set: Vitamin D-dependent transcriptional activation: growth hormone production in COS-1 cells co-transfected with VDR plasmid and VDRE-GH plasmid. The class given is cell-based. Particulars: for Total GH Production: averages of duplicate determinations. As for the experimental part:
The biological activity in vitro of chemically synthesized 1α,24(S)-(OH)2 D2 and 1α,24(R)-(OH)2 D2 was measured using a vitamin D-dependent transcriptional activation model system in which a vitamin D receptor (VDR)-expressing plasmid pSG5-hVDR1/3and a plasmid p(CT4)^4 TKGH containing a Growth Hormone (GH)-gene, under the control of a vitamin D-responsive element (VDRE) were co-transfected into Green monkey kidney, COS-1 cells. DNA's for these two vectors were supplied by Dr. Mark Haussler, Department of Biochemistry, University of Arizona, Tucson, Ariz.
Tranfected cells were incubated with vitamin D metabolites and growth hormone production was measured.

In data set [2] the test system is 1,25-(OH)2 D3 receptor site. The following applies: Ishizuka et al., Steroids 1981, 1982; cited from earlier work.
The test system of data set [3] is Hep 3B cells. Nature of the data set: Metabolite production in Hep 3B cells incubated with 1α-OH-D2. In kind it is in vitro ADME, human. The following applies: Experiment 2; substrate 1α-OH-D2 10 μM; photodiode array spectrophotometry. Here is the method: Substantially pure 1α-(OH)D2 was obtained from Bone Care International, Inc. of Madison, Wis. The 1α-(OH)D2 was cultured for 48 hours with cells derived from a human hepatoma, Hep 3B, in medium devoid of fetal calf serum using known methods in the art.
Lipid extracts of the combined medium and cells were generated by known methods in the art and were subjected to high pressure liquid chromatography (HPLC) on Zorbax-S1L developed with hexane/isopropanol/methanol (91:7:2). The putative 1α,24(?)-(OH)2 D2 metabolite eluted between the parent 1α-(OH)D2 and standard 1α,25-(OH)2 D2 (also obtained from Bone Care International, Inc. of Madison, Wis.). (As used herein, the term "1α,24(?)-(OH)2 D2 " is meant to indicate that the epimeric form has not been identified.) The 1α,24(?)-(OH)2 D2 was further purified by this HPLC system before the metabolite's identification was undertaken using mass spectrometry analysis.
Hep 3B cells were incubated with 1α-OH-D2, as described above, at final concentrations of 1, 10, or 100 nM (Experiment 1), and 1 or 10 μM (Experiment 2) and 1α,24(S)-(OH)2 D2 was extracted and purified. The 1α,24(S)-(OH)2 D2 and 1α,25-(OH)2 D2 metabolites were quantitated by recovered radiolabel (Experiment 1) or by photodiode array spectrophotometry (Experiment 2).

Data set [4] deals with human osteoporotic patients. Particulars: dosages of 2.0 μg/day or higher; cited from earlier work.
The format of data set [5] is in vivo, rat. Here is the method:
Vitamin D2 or 24-OH-D2 was administered (either oral or intraperitoneal supplementation) to vitamin D-deficient rats. Lipid extracts of the plasma were prepared and the metabolites purified by the method of Horst et al. (Horst, R. L., Koszewski, N. J. and Reinhardt, T. A., Biochem., 29:578-82 (1990)) described below for synthesyzing standard biological 1α,24-(OH)2 D2.
Standard biological 1α,24-(OH)2 D2 was synthesized in vitro from 24-OH-D2 by incubating 10 μg of 24-OH-D2 in flask containing 5 ml of 20% kidney homogenates made from vitamin D-deficient chicks. The product of this reaction was isolated by HPLC and identified by mass spectrometry.

Setting [6] is: oral or intraperitoneal supplementation, vitamin D-deficient rats, HPLC.

Where two headings read alike, the source gives them in different places.

As for `C=C1/C(=C\C=C2/CCC[C@]3(C)[C@@H]([C@H](C)/C=C/[C@](C)(O)C(C)C)CC[C@@H]23)C[C@@H](O)C[C@@H]1O` [1α,24(R)-(OH)2 D2, 1α,24(R)-dihydroxy vitamin D2], the “Total GH Production” value in data set [1] (inducer 10^-7 molar) came to 1300 ng/mL; in data set [1] (inducer 10^-8 molar) it was 1100 ng/mL; in data set [1] (inducer 10^-9 molar), 80 ng/mL. The “Net vitamin D-inducible GH-production” value in data set [1] (inducer 10^-9 molar) came out at 36 ng/mL.

For `C=C1/C(=C\C=C2/CCC[C@]3(C)[C@@H]([C@H](C)CC[C@@H](O)C(C)C)CC[C@@H]23)C[C@@H](O)C[C@@H]1O` [1α,24(R)-(OH)2 D3, 1α,24(R)-dihydroxyvitamin D3], the “binding to the 1,25-(OH)2 D3 receptor site compared with 1,25-(OH)2 D3” value in data set [2] was “more tightly than does 1,25-(OH)2 D3 itself”. `C=C1/C(=C\C=C2/CCC[C@]3(C)[C@@H]([C@H](C)/C=C/[C@H](C)C(C)(C)O)CC[C@@H]23)C[C@@H](O)C[C@@H]1O` [1α,25-(OH)2 D2, 1α,25-dihydroxy vitamin D2, reference compound]: in data set [3], the “Rate of Production” value is 7.4 pmol per 10^6 cells/day. Regarding `C=C1/C(=C\C=C2/CCC[C@]3(C)[C@@H]([C@H](C)/C=C/[C@H](C)C(C)C)CC[C@@H]23)C[C@@H](O)C[C@@H]1O` [1α-(OH)D2, 1α-hydroxy vitamin D2], in data set [4], the “loss of bone mass” value is reported as “will reverse the loss of bone mass”.

Regarding `C=C1CC[C@H](O)C/C1=C/C=C1\CCC[C@]2(C)[C@@H]([C@H](C)/C=C/C(C)(O)C(C)C)CC[C@@H]12` (some centres unmarked) [24-OH-D2, 24-hydroxyvitamin D2], the “metabolite found in lipid extracts of plasma” value in data set [5] (rat, in vivo) is “one metabolite isolated co-migrated on HPLC with the standard 1α,24-(OH)2 D2”. For the molecule `C=C1CC[C@H](O)C/C1=C/C=C1\CCC[C@]2(C)[C@@H]([C@H](C)CCCC(C)(C)O)CC[C@@H]12` [25-OH-D3, 25-hydroxy vitamin D3, reference compound], the “Total GH Production” value in data set [1] (inducer 10^-6 molar) is 1100 ng/mL. In the case of `C=C1CC[C@H](O)C/C1=C/C=C1\CCC[C@]2(C)[C@@H]([C@H](C)/C=C/[C@H](C)C(C)C)CC[C@@H]12` [vitamin D2, Vitamin D2], in data set [5] (setting [6]), the “metabolite found in lipid extracts of plasma” value is listed as “one metabolite isolated co-migrated on HPLC with the standard 1α,24-(OH)2 D2”. The same measure, in the same setting: the result for `C=C1CC[C@H](O)C/C1=C/C=C1\CCC[C@]2(C)[C@@H]([C@H](C)CCCC(C)C)CC[C@@H]12` [vitamin D3] reads “no detectable 24-OH-D3”.
